Experimental data as given in patent EP0007672A1, “Isocyanoalkenes, process and useful intermediates for their preparation, pharmaceutical and fungicidal preparations containing those isocyanoalkenes and the use of the fungicidal preparations in agriculture” (GIST-BROCADES N.V., priority 1978, dated 1980).
In brackets after ≈: the same amount, converted by molar mass. Read-outs that look alike come from different tables or passages of the source. Blank lines part the entries; values can stand above or below the compound they belong to.

Tests used:
Experiment in all cases: MIC (Minimum Inhibitory Concentration)
Format in all cases: cell-based
[1] = tested on: Bacillus subtilis; conditions: ATCC6633; Bacillus subtilis ATCC 6633
[2] = tested on: Candida albicans
[3] = tested on: Diplococcus pneumoniae; conditions: Streptococcus pneumoniae; Diplococcus pneumoniae A 2783
[4] = tested on: Fusarium (bulb); conditions: Fusarium (bulb) A 3252
[5] = tested on: Fusarium (tulip); conditions: Fusarium (tulip) A 3253
[6] = tested on: Fusarium solani; conditions: Fusarium solani A 3245; read-out: MIC values
[7] = tested on: Pasteurella multocida; conditions: Pasteurella multocida A 723; read-out: MIC values
[8] = tested on: Proteus morganii; conditions: Morganella morganii; Proteus morganii 2241
[9] = tested on: Rhizoctonia solani; conditions: Rhizoctonia solani 200-25; read-out: MIC values
[10] = tested on: Staphylococcus aureus
[11] = tested on: Streptococcus haemolyticus; conditions: Streptococcus haemolyticus A 1088; read-out: MIC values
[12] = tested on: Trichophyton equinum
[13] = tested on: Trichophyton mentagrophytus
[14] = tested on: Trichophyton quickeaneum; conditions: Trichophyton quickeaneum A 2040; read-out: MIC values
[15] = tested on: Trichophyton rubrum
[16] = tested on: Trichophyton schoenleinii; conditions: Trichophyton schoenleinii 435-63; read-out: MIC values
[17] = tested on: Trichophyton soudanese joyeux; conditions: Trichophyton soudanese joyeux 440-63; read-out: MIC values
[18] = tested on: Trichophyton tonsurans; conditions: Trichophyton tonsurans 561-50; read-out: MIC values
[19] = tested on: Trichophyton verrucosum
[20] = tested on: Trichophyton violoceum; conditions: Trichophyton violoceum 442-62; read-out: MIC values
[21] = Candida albicans A 7, read-out: MIC values
[22] = Candida albicans A 3140, read-out: MIC values
[23] = Candida albicans A 3141, read-out: MIC values
[24] = Candida albicans A 3142, read-out: MIC values
[25] = Candida albicans A 3143, read-out: MIC values
[26] = Candida albicans A 3144, read-out: MIC values
[27] = Candida albicans A 3145, read-out: MIC values
[28] = Candida albicans A 3165, read-out: MIC values
[29] = Candida albicans A 3166, read-out: MIC values
[30] = Candida albicans A 3167, read-out: MIC values
[31] = Candida albicans A 3168, read-out: MIC values
[32] = Candida albicans A 3169, read-out: MIC values
[33] = Candida albicans A 3171, read-out: MIC values
[34] = Candida albicans A 3184, read-out: MIC values
[35] = Candida albicans A 3190, read-out: MIC values
[36] = Candida albicans A 3191, read-out: MIC values
[37] = Candida albicans A 3192, read-out: MIC values
[38] = Candida albicans A 3194, read-out: MIC values
[39] = Candida albicans A 3196, read-out: MIC values
[40] = Trichophyton equinum 441-51, read-out: MIC values
[41] = Trichophyton equinum 856-71, read-out: MIC values
[42] = Trichophyton mentagrophytus 367-68, read-out: MIC values
[43] = Trichophyton mentagrophytus 421-67, read-out: MIC values
[44] = Trichophyton mentagrophytus A 3252, read-out: MIC values
[45] = Trichophyton mentagrophytus R 177, read-out: MIC values
[46] = Trichophyton mentagrophytus R 178, read-out: MIC values
[47] = Trichophyton mentagrophytus RRL 305, read-out: MIC values
[48] = Trichophyton rubrum 218-65, read-out: MIC values
[49] = Trichophyton rubrum 494-62, read-out: MIC values
[50] = Trichophyton rubrum A 810, read-out: MIC values
[51] = Trichophyton verrucosum 134-66, read-out: MIC values

Structure (SMILES): [C-]#[N+]C(=Cc1ccco1)S(=O)(=O)c1ccc(C)cc1 [Example 10, 2-(2-furyl)-1-isocyano-1-(4-toluenesulphonyl)-ethene]
- MIC [1]: 6 µg/mL (≈ 22 µM)
- MIC [2, 21]: 0.2 µg/mL (≈ 0.732 µM)
- MIC [2, 22]: 0.2 µg/mL (≈ 0.732 µM)
- MIC [2, 23]: 0.4 µg/mL (≈ 1.46 µM)
- MIC [2, 24]: 0.4 µg/mL (≈ 1.46 µM)
- MIC [2, 25]: 0.2 µg/mL (≈ 0.732 µM)
- MIC [2, 26]: 0.2 µg/mL (≈ 0.732 µM)
- MIC [2, 27]: 0.8 µg/mL (≈ 2.93 µM)
- MIC [2, 28]: 0.4 µg/mL (≈ 1.46 µM)
- MIC [2, 29]: 0.4 µg/mL (≈ 1.46 µM)
- MIC [2, 30]: 0.4 µg/mL (≈ 1.46 µM)
- MIC [2, 31]: 0.4 µg/mL (≈ 1.46 µM)
- MIC [2, 32]: 0.4 µg/mL (≈ 1.46 µM)
- MIC [2, 33]: 0.4 µg/mL (≈ 1.46 µM)
- MIC [2, 34]: 0.2 µg/mL (≈ 0.732 µM)
- MIC [2, 35]: 0.4 µg/mL (≈ 1.46 µM)
- MIC [2, 36]: 0.4 µg/mL (≈ 1.46 µM)
- MIC [2, 37]: 0.2 µg/mL (≈ 0.732 µM)
- MIC [2, 38]: 0.4 µg/mL (≈ 1.46 µM)
- MIC [2, 39]: 0.4 µg/mL (≈ 1.46 µM)
- MIC [3]: 6 µg/mL (≈ 22 µM)
- MIC [4]: 25 µg/mL (≈ 91.5 µM)
- MIC [5]: 12.5 µg/mL (≈ 45.7 µM)
- MIC [6]: 25 µg/mL (≈ 91.5 µM)
- MIC [7]: < 1.5 µg/mL
- MIC [8]: 6 µg/mL (≈ 22 µM)
- MIC [9]: 1.5 µg/mL (≈ 5.49 µM)
- MIC ([10]; Staphylococcus aureus A 321): 12.5 µg/mL (≈ 45.7 µM)
- MIC ([10]; Staphylococcus aureus A 355): 12.5 µg/mL (≈ 45.7 µM)
- MIC ([10]; Staphylococcus aureus A 2000): 12.5 µg/mL (≈ 45.7 µM)
- MIC [11]: 6 µg/mL (≈ 22 µM)
- MIC ([12]; Trichophyton equinum 182-76, read-out: MIC values): 1.5 µg/mL (≈ 5.49 µM)
- MIC [12, 40]: < 0.05 µg/mL
- MIC [12, 41]: < 0.05 µg/mL
- MIC [13, 42]: 0.1 µg/mL (≈ 0.366 µM)
- MIC [13, 43]: 1.5 µg/mL (≈ 5.49 µM)
- MIC [13, 44]: 3 µg/mL (≈ 11 µM)
- MIC [13, 45]: 1.5 µg/mL (≈ 5.49 µM)
- MIC [13, 46]: 100 µg/mL (≈ 366 µM)
- MIC [13, 47]: 0.1 µg/mL (≈ 0.366 µM)
- MIC [14]: 3 µg/mL (≈ 11 µM)
- MIC [15, 48]: 0.1 µg/mL (≈ 0.366 µM)
- MIC [15, 49]: 0.1 µg/mL (≈ 0.366 µM)
- MIC [15, 50]: < 0.05 µg/mL
- MIC [16]: 0.1 µg/mL (≈ 0.366 µM)
- MIC [17]: 6 µg/mL (≈ 22 µM)
- MIC [18]: 3 µg/mL (≈ 11 µM)
- MIC [19, 51]: 0.2 µg/mL (≈ 0.732 µM)
- MIC ([19]; Trichophyton verrucosum A 2922, read-out: MIC values): < 0.05 µg/mL
- MIC [20]: 0.1 µg/mL (≈ 0.366 µM)

- MIC [1]: 3 µg/mL (≈ 9.57 µM)
- MIC [2, 21]: 1.5 µg/mL (≈ 4.79 µM)
- MIC [2, 22]: 1.5 µg/mL (≈ 4.79 µM)
- MIC [2, 23]: 1.5 µg/mL (≈ 4.79 µM)
- MIC [2, 24]: 1.5 µg/mL (≈ 4.79 µM)
- MIC [2, 25]: 1.5 µg/mL (≈ 4.79 µM)
- MIC [2, 26]: 1.5 µg/mL (≈ 4.79 µM)
- MIC [2, 27]: 1.5 µg/mL (≈ 4.79 µM)
- MIC [2, 28]: 1.5 µg/mL (≈ 4.79 µM)
- MIC [2, 29]: 1.5 µg/mL (≈ 4.79 µM)
- MIC [2, 30]: 1.5 µg/mL (≈ 4.79 µM)
- MIC [2, 31]: 1.5 µg/mL (≈ 4.79 µM)
- MIC [2, 32]: 1.5 µg/mL (≈ 4.79 µM)
- MIC [2, 33]: 1.5 µg/mL (≈ 4.79 µM)
- MIC [2, 34]: 1.5 µg/mL (≈ 4.79 µM)
- MIC [2, 35]: 1.5 µg/mL (≈ 4.79 µM)
- MIC [2, 36]: 1.5 µg/mL (≈ 4.79 µM)
- MIC [2, 37]: 1.5 µg/mL (≈ 4.79 µM)
- MIC [2, 38]: 1.5 µg/mL (≈ 4.79 µM)
- MIC [2, 39]: 1.5 µg/mL (≈ 4.79 µM)
- MIC [3]: 6 µg/mL (≈ 19.1 µM)
- MIC [7]: 3 µg/mL (≈ 9.57 µM)
- MIC [8]: 6 µg/mL (≈ 19.1 µM)
- MIC ([10]; Staphylococcus aureus A 321): 3 µg/mL (≈ 9.57 µM)
- MIC ([10]; Staphylococcus aureus A 355): 3 µg/mL (≈ 9.57 µM)
- MIC ([10]; Staphylococcus aureus A 2000): 1.5 µg/mL (≈ 4.79 µM)
- MIC [12, 40]: 1.5 µg/mL (≈ 4.79 µM)
- MIC [12, 41]: 100 µg/mL (≈ 319 µM)
- MIC [13, 42]: 25 µg/mL (≈ 79.8 µM)
- MIC [13, 43]: 100 µg/mL (≈ 319 µM)
- MIC [13, 44]: 100 µg/mL (≈ 319 µM)
- MIC [13, 45]: 12.5 µg/mL (≈ 39.9 µM)
- MIC [13, 46]: > 100 µg/mL
- MIC [13, 47]: 25 µg/mL (≈ 79.8 µM)
- MIC [15, 48]: 25 µg/mL (≈ 79.8 µM)
- MIC [15, 49]: 100 µg/mL (≈ 319 µM)
- MIC [15, 50]: 25 µg/mL (≈ 79.8 µM)
- MIC [16]: 3 µg/mL (≈ 9.57 µM)
- MIC [17]: 6 µg/mL (≈ 19.1 µM)
- MIC [18]: 0.8 µg/mL (≈ 2.55 µM)
- MIC [19, 51]: 1.5 µg/mL (≈ 4.79 µM)
- MIC [20]: 3 µg/mL (≈ 9.57 µM)
Structure (SMILES): [C-]#[N+]C(=Cc1ccc(OC)cc1)S(=O)(=O)c1ccc(C)cc1 [Example 23, 1-isocyano-2-(4-methoxyphenyl)-1-(4-toluenesulphonyl)-ethene]
- MIC [11]: < 0.05 µg/mL
